Assays:
[1] = Shuttle molecules tested in LiFePO4/graphite and LiFePO4/Li4/3Ti5/3O4 coin cells, C/10, 100% overcharge; conditions: 0.1M shuttle, 0.7 M LiBOB PC:DMC:EC:DEC 1:2:1:2
Experimental: A variety of shuttle molecules (obtained from Aldrich Chemical Co. and used without further purification) were tested in LiFePO4/graphite and LiFePO4/Li4/3Ti5/3O4 coin cells. The LiFePO4 was obtained from Phostech Lithium as in Example 1 and the Li4/3Ti5/3O4 was obtained from NEI Corp. (Piscataway, N.J., USA). The graphite used was mesocarbon microbeads (MCMB) heat treated to near 2650° C. Electrodes were made from the active materials 10% by weight Super S carbon black (MMM Carbon, Belgium) and 10% by weight PVDF binder. LiFePO4 and Li4/3Ti5/3O4 electrodes were coated on aluminum foil and MCMB electrodes were coated on copper foil. […] The electrolyte was 0.7 M LiBOB in a 1:2:1:2 by volume mixture of PC:DMC:EC:DEC. The shuttle molecule was added in a concentration of 0.1M. Coin cells were charged using currents corresponding to a normal recharge in 10 hours (C/10) to 200% of their normal charge capacity (100% overcharge) or until a specified upper cut-off potential (normally 4.9V versus Li/Li^+) was reached, which ever occurred first and tested until the shuttle ceased to function. Four shuttles were employed, namely 1,3,5-tri-t-butyl-2-methoxybenzene (Example 9), 5-t-butyl-1,3-dinitro-2-methoxybenzene (Example 10), 2-t-butyl-4,6-dinitro-5-methylanisole (Example 11) and 4-t-butyl-2,6-diaminoanisole (Comparison Example 10). The coin cell test results are set out below in Table 2: […]

[2] = Maximum solubility of shuttle in electrolyte, determined visually; type: physicochemical; conditions: in the Example 1 and Example 2 electrolyte (0.7 M LiBOB EC:DEC 1:2)
Experimental: Solubility limits were determined visually, after extended mixing.

[3] = Cyclic voltammetry shuttle diffusion constant; type: physicochemical
Experimental: Further testing was carried out in coin cells made using 0.2 M 2,5-di-tert-butyl-1,4-dimethoxybenzene and 0.5 M LiBOB in 1:2 PC:DEC. […] For this cell the shuttle was singly ionized, the initially estimated electrode area was 1.3 cm^2 and the initially estimated electrode spacing was defined by the 25 μm separator. Based on measurements of the shuttle potential versus applied current, the effective diffusion constant D was estimated to be about 7×10^−7 cm^2/sec, and the maximum current density carried by the shuttle was estimated to be about 2.3 mA/cm^2. Using cyclic voltammetry, the shuttle diffusion constant was determined to be 1.6×10^−6 cm^2/sec. […] Thus, the effective area was less than 1.3 cm^2 and the effective length was greater than 25 μm.

[4] = Shuttle potential versus sequentially increased charge current in coin cell (Imax)
Excerpt: According to the literature (Richardson et al., J. Electrochem. Soc. Vol. 143, 3992 (1996)) the maximum shuttle current for a singly ionized shuttle is given by Imax=FAD C/d, [1] where F is Faraday's number, A is the electrode area, D is an effective diffusion constant of the shuttle species (taking into account both oxidized and reduced forms of the shuttle), C is the total concentration of the shuttle species and d is the distance between the electrodes. To obtain a large shuttle current, the electrolyte should impart a large diffusion constant, D, to the shuttle and support a high shuttle concentration, C. The shuttle diffusion constant usually will increase as the electrolyte solution viscosity decreases. A variety of charge carrying media may be employed in the electrolyte. Exemplary media are liquids or gels capable of solubilizing sufficient quantities of the lithium salt and the redox chemical shuttle so that a suitable quantity of charge can be transported from the positive electrode to negative electrode. […]
Further testing was carried out in coin cells made using 0.2 M 2,5-di-tert-butyl-1,4-dimethoxybenzene and 0.5 M LiBOB in 1:2 PC:DEC. […] Using cyclic voltammetry, the shuttle diffusion constant was determined to be 1.6×10^−6 cm^2/sec. […]

[5] = Extended shuttle-protected overcharge cycling, LiFePO4/graphite cell, 100% overcharge each cycle; conditions: 0.2 M shuttle, 0.5 M LiBOB in 1:2 PC:DEC
Experimental: Further testing was carried out to evaluate currents up to 1/3 of Imax in extended shuttle-protected overcharge tests. […] The shuttle plateau is near 3.9 V because the graphite electrode is near 0 V vs Li/Li^+ when the Li-ion coin cell is fully charged. The charging current was 0.55 mA, which corresponds to about a C/2-rate for the electrodes of this cell. The shuttle continues to perform well after 200 charge discharge cycles. […] In this case, the shuttle was able to protect against overcharge for about 190 cycles, followed by disappearance of the shuttle effect over the next few cycles. […] The loss of shuttle effect at high C rates may have been due to the Li4/3Ti5/3O4 negative electrode dropping below its plateau potential (1.55 V) before reaching the fully discharged state.

## COc1c(N)cc(C(C)(C)C)cc1N [Comp. Ex. 5, 4-t-butyl-2,6-diaminoanisole, reference compound]
[1]
  Potential V, Li/Li^+: 4.4 V

## COc1c(C(C)(C)C)cc([N+](=O)[O-])c(C)c1[N+](=O)[O-] [Example 11, 2-t-butyl-4,6-dinitro-5-methylanisole]
[1]
  Potential V, Li/Li^+: 4.9 V

## COc1cc(C(C)(C)C)c(OC)cc1C(C)(C)C [2,5-di-tert-butyl-1,4-dimethoxybenzene]
[2]
  maximum room temperature solubility: ~0.09 M
[3]
  shuttle diffusion constant: 1.6×10^−6 cm^2/sec
[4]; 0.2 M shuttle, 0.5 M LiBOB in 1:2 PC:DEC
  potential at which the shuttle became oxidized at the LiFePO4 positive electrode: about 3.9 V vs Li/Li^+
[4]; electrode area 1.3 cm^2, 25 μm separator
  effective diffusion constant D (estimated from shuttle potential versus applied current): about 7×10^−7 cm^2/sec
[5]
  shuttle plateau: ~3.9 V

## COc1c([N+](=O)[O-])cc(C(C)(C)C)cc1[N+](=O)[O-] [Example 10, 5-t-butyl-1,3-dinitro-2-methoxybenzene]
[1]
  Potential V, Li/Li^+: 4.9 V

## COc1c(C(C)(C)C)cc(C(C)(C)C)cc1C(C)(C)C [Example 9, 1,3,5-tri-t-butyl-2-methoxybenzene]
[1]
  Potential V, Li/Li^+: 4.4 V

Source: US20050221196A1, “Redox shuttle for rechargeable lithium-ion cell” (priority 2004, published 2005)
